Reference: US20240018102A1, “COMPOUNDS AND COMPOSITIONS FOR TREATING CONDITIONS ASSOCIATED WITH LPA RECEPTOR ACTIVITY” (Lhotse Bio, Inc., priority 2020, published 2024)

Biological target: T1, human LPA1 (Homo sapiens, UniProt Q92633)
T1 construct: expressed in transfected cells; host or cells: CHO-K1
Assay: In vitro LPA1 functional antagonist assay (calcium mobilization, FLIPR)
Assay type: cell-based
Conditions: CHO-K1 cells overexpressing human LPA1; Oleoyl LPA challenge; calcium mobilization on FLIPR Tetra
Procedure: In Vitro LPA1 Functional Antagonist Assay
CHO-K1 cells overexpressing human LPA1 were seeded in a total volume of 20 μL into black-walled, clear-bottom, Poly-D-lysine coated 384-well microplates and incubated at 37° C. for the appropriate time prior to testing. Assays were performed in 1× Dye Loading Buffer consisting of 1× Dye, 1× Additive A and 2.5 mM Probenecid in HBSS/20 mM Hepes. Probenicid was prepared fresh. Cells were loaded with dye prior to testing. Media was aspirated from cells and replaced with […] Dye Loading Buffer. Cells were incubated for 30-60 minutes at 37° C. After dye loading, cells were removed from the incubator and 10 μL 3× test compound was added. Cells were incubated for 30 minutes at room temperature in the dark to equilibrate plate temperature followed by Oleoyl LPA challenge at the 0.018 M. Compound antagonist activity was measured on a FLIPR Tetra (MDS). Calcium mobilization was monitored for 2 minutes and 10 μL Oleoyl LPA in HBSS/20 mM Hepes was added to the cells 5 seconds into the assay. Compound activity was analyzed using CBIS data analysis suite (ChemInnovation, CA). Percentage inhibition is calculated using the following formula:
% Inhibition=100%×(1−(mean RFU of test sample−mean RFU of vehicle control)/(mean RFU of LPA control−mean RFU of vehicle control)).

T1 sequence (Q92633 whole entry): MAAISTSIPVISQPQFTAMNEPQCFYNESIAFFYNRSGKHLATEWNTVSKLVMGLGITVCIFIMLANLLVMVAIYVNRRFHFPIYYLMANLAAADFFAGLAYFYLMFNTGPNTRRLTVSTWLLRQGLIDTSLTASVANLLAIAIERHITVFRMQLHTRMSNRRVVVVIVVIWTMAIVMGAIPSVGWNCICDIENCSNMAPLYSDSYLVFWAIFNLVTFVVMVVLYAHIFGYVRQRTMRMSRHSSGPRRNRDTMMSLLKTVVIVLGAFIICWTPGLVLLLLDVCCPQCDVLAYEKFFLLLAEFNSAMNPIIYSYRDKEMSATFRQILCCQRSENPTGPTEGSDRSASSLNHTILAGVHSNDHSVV

SMILES	IC50 [µM]
COC(=O)c1cn(C[C@H](OCCc2ccccc2)[C@H](O)c2cc(OC)c(C)c(OC)c2)cc1CC(=O)O [Compound 104a, 2-(1-((2S,3R)-3-(3,5-dimethoxy-4-methylphenyl)-3-hydroxy-2-phenethoxypropyl)-4-(methoxycarbonyl)-1H-pyrrol-3-yl)acetic acid]	0.00524
COc1cc([C@H](O)[C@H](Cn2cc3cccc(C(=O)O)c3n2)OCCc2ccccc2)cc(OC)c1C [Compound 105b, 2-((2S,3S)-3-(3,5-dimethoxy-4-methylphenyl)-3-hydroxy-2-phenethoxypropyl)-2H-indazole-7-carboxylic acid]	0.049
COc1cc([C@@H](O)[C@H](Cn2cc3cccc(C(=O)O)c3n2)OC2Cc3ccccc3C2)cc(OC)c1C [Compound 113a, 2-((2S, 3R)-2-((2,3-dihydro-1H-inden-2-yl)oxy)-3-(3,5-dimethoxy-4-methylphenyl)-3-hydroxypropyl)-2H-indazole-7-carboxylic acid]	0.00369
COc1cc([C@@H](O)[C@H](Cc2nc3cc(C(=O)O)ccc3[nH]2)OC2Cc3ccccc3C2)cc(OC)c1C [Compound 114a, 2-((2S, 3R)-2-((2,3-dihydro-1H-inden-2-yl)oxy)-3-(3,5-dimethoxy-4-methylphenyl)-3-hydroxypropyl)-1H-benzo[d]imidazole-5-carboxylic acid]	0.125
COc1cc([C@@H](O)[C@H](Cn2cc3cccc(C(=O)O)c3n2)OC2CCCC2)ccc1C(F)F [Compound 121a]	0.0112
O=C(O)c1cccc2cn(C[C@H](OC3CCCC3)[C@H](O)c3ccc(C(F)(F)F)cc3)nc12 [Compound 124a]	5.7
COc1cc([C@@H](O)[C@H](Cn2cc3cccc(C(=O)O)c3n2)OC2CCCC2)ccc1C1CC1 [Compound 125a]	0.0807
COc1cc([C@@H](O)[C@H](Cn2cc3cccc(C(=O)O)c3n2)OC2CCCC2)ccc1Cl [Compound 126a, 2-((2S,3R)-3-(4-chloro-3-methoxyphenyl)-2-(cyclopentyloxy)-3-hydroxypropyl)-2H-indazole-7-carboxylic acid]	0.0648
Cc1ccc([C@@H](O)[C@H](Cn2cc3cccc(C(=O)O)c3n2)OC2CCCC2)cn1 [Compound 127a]	> 10
O=C(O)c1cccc2cn(C[C@H](OC3CCCC3)[C@H](O)c3ccc(C(F)F)cc3)nc12 [Compound 128a]	0.207
N#Cc1cc([C@@H](O)[C@H](Cn2cc3cccc(C(=O)O)c3n2)OC2CCCC2)ccc1Cl [Compound 134]	> 10
COc1cc([C@H](O)[C@H](Cn2cc3cccc(C(N)=O)c3n2)OC2CCCC2)ccc1F [Compound 135]	> 10
O=C(O)c1cccc2cn(C[C@H](OC3CCCC3)[C@H](O)c3ccccc3)nc12 [Compound 136]	> 10
O=C(O)c1cccc2cn(C[C@H](OC3CCCC3)[C@@H](O)c3ccccc3)nc12 [Compound 137]	> 10
COc1cc([C@H](O)[C@H](Cn2cc3cccc(C(=O)O)c3n2)OC2CCCC2)ccc1F [Compound 138]	> 10
COc1cc([C@@H](O)[C@H](Cn2cc3cccc(C(=O)O)c3n2)OC2CCCC2)ccc1F [Compound 139]	1.35
CCOc1cc([C@@H](O)[C@H](Cn2cc3cccc(C(=O)O)c3n2)OC2CCCC2)ccc1C [Compound 141]	0.193

Further lines, results first:

IC50 [µM]	SMILES
0.0145	COC(=O)c1cn(C[C@H](OC2CCCC2)[C@H](O)c2cc(OC)c(C)c(OC)c2)cc1CC(=O)O [Compound 102a, 2-(1-((2S,3R)-2-(cyclopentyloxy)-3-(3,5-dimethoxy-4-methylphenyl)-3-hydroxypropyl)-4-(methoxycarbonyl)-1H-pyrrol-3-yl)acetic acid]
0.00474	COC(=O)c1cn(C[C@H](OC2Cc3ccccc3C2)[C@H](O)c2cc(OC)c(C)c(OC)c2)cc1CC(=O)O [Compound 103a, 2-(1-((2S,3R)-2-((2,3-dihydro-1H-inden-2-yl)oxy)-3-(3,5-dimethoxy-4-methylphenyl)-3-hydroxypropyl)-4-(methoxycarbonyl)-1H-pyrrol-3-yl)acetic acid]
0.411	COc1cc([C@@H](O)[C@H](Cc2ccc(CC(=O)O)cn2)OCCc2ccccc2)cc(OC)c1C [Compound 106a, 2-(6-((2S,3R)-3-(3,5-dimethoxy-4-methylphenyl)-3-hydroxy-2-phenethoxypropyl)pyridin-3-yl)acetic acid]
> 10	COc1cc(C(O)C(Cn2ncc3cccc(C(=O)O)c32)OCCc2ccccc2)cc(OC)c1C (stereo not drawn) [Compound 107, 1-(3-(3,5-dimethoxy-4-methylphenyl)-3-hydroxy-2-phenethoxypropyl)-1H-indazole-7-carboxylic acid]
0.00305	COc1cc([C@@H](O)[C@H](Cn2cc3cccc(C(=O)O)c3n2)OC2CCCC2)cc(OC)c1C [Compound 108a, 2-((2S,3R)-2-(cyclopentyloxy)-3-(3,5-dimethoxy-4-methylphenyl)-3-hydroxypropyl)-2H-indazole-7-carboxylic acid]
> 10	COc1cc([C@@H](O)[C@H](Cc2nc3cc(C(=O)O)ccc3[nH]2)OC2CCCC2)cc(OC)c1C [Compound 109a, 2-((2S,3R)-2-(cyclopentyloxy)-3-(3,5-dimethoxy-4-methylphenyl)-3-hydroxypropyl)-1H-benzo[d]imidazole-5-carboxylic acid]
1.65	COc1cc([C@@H](O)[C@H](Cc2ccc(CC(=O)O)c(OC)n2)OC2CCCC2)cc(OC)c1C [Compound 110a, 2-(6-((2S,3R)-2-(cyclopentyloxy)-3-(3,5-dimethoxy-4-methylphenyl)-3-hydroxypropyl)-2-methoxypyridin-3-yl)acetic acid]
> 10	COc1cc([C@@H](O)[C@H](Cc2nc3cc(CC(=O)O)ccc3[nH]2)OC2CCCC2)cc(OC)c1C [Compound 111a, 2-(2-((2S,3R)-2-(cyclopentyloxy)-3-(3,5-dimethoxy-4-methylphenyl)-3-hydroxypropyl)-1H-benzo[d]imidazol-5-yl)acetic acid]
0.0561	COc1cc([C@@H](O)[C@H](Cc2nc(CC(=O)O)cs2)OC2CCCC2)cc(OC)c1C [Compound 112a, 2-(2-((2S,3R)-2-(cyclopentyloxy)-3-(3,5-dimethoxy-4-methylphenyl)-3-hydroxypropyl)thiazol-4-yl)acetic acid]
0.0308	COc1cc([C@@H](O)[C@H](Cc2nc3cc(CC(=O)O)ccc3[nH]2)OC2Cc3ccccc3C2)cc(OC)c1C [Compound 115a, 2-[2-[(2S,3R)-3-(3,5-dimethoxy-4-methyl-phenyl)-3-hydroxy-2-indan-2-yloxy-propyl]-1H-benzimidazol-5-yl]acetic acid]
1.47	COc1cc([C@@H](O)[C@H](Cc2ccn(CC(=O)O)n2)OC2CCCC2)cc(OC)c1C [Compound 116a]
0.0619	COC(=O)c1cn(C[C@H](OCC2CCC2)[C@H](O)c2cc(OC)c(C)c(OC)c2)cc1CC(=O)O [Compound 117a]
0.0266	COc1cc([C@@H](O)[C@H](Cn2cc3cccc(C(=O)O)c3n2)OCC2CCC2)cc(OC)c1C [Compound 118a, 2-((2S,3R)-2-(cyclobutylmethoxy)-3-(3,5-dimethoxy-4-methylphenyl)-3-hydroxypropyl)-2H-indazole-7-carboxylic acid]
> 10	COc1cc([C@@H](O)[C@H](Cc2nc3cc(C(=O)O)ccc3n2C)OCC2CCC2)cc(OC)c1C [Compound 119a, 2-[(2S,3R)-2-(cyclobutylmethoxy)-3-(3,5-dimethoxy-4-methyl-phenyl)-3-hydroxy-propyl]-1-methyl-benzimidazole-5-carboxylic acid]
> 10	COc1cc([C@@H](O)[C@H](Cc2nc3cc(CC(=O)O)ccc3n2C)OCC2CCC2)cc(OC)c1C [Compound 120a, 2-[2-[(2S,3R)-2-(cyclobutylmethoxy)-3-(3,5-dimethoxy-4-methyl-phenyl)-3-hydroxy-propyl]-1-methyl-benzimidazol-5-yl]acetic acid]
1.45	COc1cc([C@@H](O)[C@H](Cc2nc(CC(=O)O)cs2)OCC2CCC2)cc(OC)c1C [Compound 122a]
0.00338	COc1cc([C@@H](O)[C@H](Cc2nc(CC(=O)O)cs2)OC2Cc3ccccc3C2)cc(OC)c1C [Compound 129a, 2-(2-((2S,3R)-2-((2,3-dihydro-1H-inden-2-yl)oxy)-3-(3,5-dimethoxy-4-methylphenyl)-3-hydroxypropyl)thiazol-4-yl)acetic acid]
1.19	COc1cc([C@@H](O)[C@H](Cc2ccc(CC(=O)O)c(OC)n2)OCCc2ccccc2)cc(OC)c1C [Compound 130a, 2-(6-((2S,3R)-3-(3,5-dimethoxy-4-methylphenyl)-3-hydroxy-2-phenethoxypropyl)-2-methoxypyridin-3-yl)acetic acid]
> 10	COc1cc([C@@H](O)[C@H](Cc2nc3cc(C(=O)O)ccc3[nH]2)OCC2CCC2)cc(OC)c1C [Compound 131a, 2-((2S,3R)-2-(cyclobutylmethoxy)-3-(3,5-dimethoxy-4-methylphenyl)-3-hydroxypropyl)-1H-benzo[d]imidazole-5-carboxylic acid]
1.54	COC(=O)c1cn(C[C@H](OCCc2ccccc2)[C@@H](O)c2cc(OC)c(C)c(OC)c2)cc1CC(=O)O [Compound 132]
0.0118	COc1cc([C@@H](O)[C@H](Cn2cc3cccc(C(=O)O)c3n2)OC2CCCCC2)cc(OC)c1C [Compound 140]
> 10	COc1cc([C@@H](O)[C@H](Cc2nc3c(C(=O)O)cccc3[nH]2)OC2CCCC2)cc(OC)c1C [Compound 142]
